According to the NIST ThermoML archive (doi:10.1016/j.fluid.2014.11.009):

How the values were obtained:
[1] = 101 kPa, Liquid; for viscosity: Cone and plate viscometry; for mass density: Vibrating tube method
[2] = xn = mol fraction of the nth substance listed; conditions: 101 kPa, Liquid; for mass density: Vibrating tube method; for viscosity: Cone and plate viscometry

CN(CCO)CCO [N-methyldiethanolamine]
[1]
Conditions | mass density [kg/m3] | viscosity [mPa·s]
303.2 K | – | 56.3
313.2 K | 1026.7 | 34.44
323.2 K | 1018.9 | 22.93

CN(CCO)CCO [N-methyldiethanolamine] + O
[2]
Conditions | mass density, x1 = 0.0192 [kg/m3] | mass density, x1 = 0.1168 [kg/m3] | viscosity, x1 = 0.0192 [mPa·s] | viscosity, x1 = 0.1168 [mPa·s]
293.2 K | 1011.8 | 1043.3 | – | –
298.2 K | 1008.9 | 1040.4 | – | –
303.2 K | 1005.8 | 1037.3 | 1.568 | 6.671
313.2 K | 999.7 | 1030.8 | 1.178 | 4.706
323.2 K | 993.1 | 1024.1 | 0.796 | 3.057
333.2 K | 983.8 | 1016.9 | 0.688 | 2.193
343.2 K | 977.9 | 1009.4 | – | 1.589
353.2 K | 970.1 | 1001.7 | – | 1.194
363.2 K | 962 | 993.5 | – | –

NC(N)=[NH2+].O=S(=O)([O-])C(F)(F)F [guanidinium trifluoromethanesulfonate] + O
[2]
Conditions | mass density, x1 = 0.0202 [kg/m3] | mass density, x1 = 0.2073 [kg/m3] | viscosity, x1 = 0.0018 [mPa·s] | viscosity, x1 = 0.0056 [mPa·s] | viscosity, x1 = 0.0095 [mPa·s] | viscosity, x1 = 0.0137 [mPa·s] | viscosity, x1 = 0.0181 [mPa·s] | viscosity, x1 = 0.0202 [mPa·s] | viscosity, x1 = 0.2073 [mPa·s]
293.2 K | 1087.8 | 1125 | – | – | – | – | – | – | –
298.2 K | 1084 | 1120.3 | – | – | – | – | – | – | –
303.2 K | 1080.8 | 1116.9 | 0.7366 | 0.7996 | 0.8208 | 0.8616 | 0.9134 | 0.9855 | 1.361
313.2 K | 1073.9 | 1110.6 | 0.6512 | 0.6757 | 0.6976 | 0.7326 | 0.8268 | 0.8374 | 1.098
323.2 K | 1067.4 | 1103.8 | 0.6047 | 0.6289 | 0.6517 | 0.6872 | 0.7268 | 0.7438 | 0.9221
333.2 K | 1059.3 | 1097.5 | 0.5555 | 0.5686 | 0.5834 | 0.6095 | 0.6302 | 0.6544 | 0.67
343.2 K | 1050.9 | 1088.8 | – | – | – | – | – | – | –
353.2 K | 1043.2 | 1080 | – | – | – | – | – | – | –
363.2 K | 1035 | 1072.1 | – | – | – | – | – | – | –
